# Source: patent US11401243B2, “Quinoline derived small molecule inhibitors of nicotinamide N-methyltransferase (NNMT) and uses thereof” (priority 2017, dated 2022)
# Entries after “also recorded” stand apart in the source; their conditions may differ.
# How the values were obtained:
# [1] = test system: 3T3-L1 pre-adipocytes cells; test: MTT cell viability assay; type: cell-based
# Experimental: Cells were treated for 24 h with 0.1-600 μM NNMT inhibitors in cell culture media. A 24 h time point was chosen based on a previous report of using this time period for transfecting or treating 3T3-L1 cells with NNMT anti-sense oligonucleotides or a small molecule NNMT product inhibitor (1-MNA), respectively, for phenotypic measures. MTT (3-(4,5-dimethylthiazol-2-yl)-2,5-diphenyltetrazolium bromide) (ATCC; Manassas, Va., USA) was added to each well and assayed according to the manufacturer's instructions. Absorbance corresponding to the amount of formazan dye produced by treated cells was normalized to that produced by control (untreated) cells to calculate % viable cells in the treated samples.
# [2] = Parallel artificial membrane permeability assay (PAMPA); type: in vitro ADME
# Experimental: Samples were tested in triplicates in three separate experiments.
# [3] = biological target: T1, recombinant human SIRT-1 (NAD+-dependent) enzyme (Homo sapiens, UniProt Q96EB6); test: SIRT-1 activity assay (fluorometric); type: biochemical
# T1 construct: Reaction Biology Corporation (ran the assay)
# T1 sequence (Q96EB6 1-747): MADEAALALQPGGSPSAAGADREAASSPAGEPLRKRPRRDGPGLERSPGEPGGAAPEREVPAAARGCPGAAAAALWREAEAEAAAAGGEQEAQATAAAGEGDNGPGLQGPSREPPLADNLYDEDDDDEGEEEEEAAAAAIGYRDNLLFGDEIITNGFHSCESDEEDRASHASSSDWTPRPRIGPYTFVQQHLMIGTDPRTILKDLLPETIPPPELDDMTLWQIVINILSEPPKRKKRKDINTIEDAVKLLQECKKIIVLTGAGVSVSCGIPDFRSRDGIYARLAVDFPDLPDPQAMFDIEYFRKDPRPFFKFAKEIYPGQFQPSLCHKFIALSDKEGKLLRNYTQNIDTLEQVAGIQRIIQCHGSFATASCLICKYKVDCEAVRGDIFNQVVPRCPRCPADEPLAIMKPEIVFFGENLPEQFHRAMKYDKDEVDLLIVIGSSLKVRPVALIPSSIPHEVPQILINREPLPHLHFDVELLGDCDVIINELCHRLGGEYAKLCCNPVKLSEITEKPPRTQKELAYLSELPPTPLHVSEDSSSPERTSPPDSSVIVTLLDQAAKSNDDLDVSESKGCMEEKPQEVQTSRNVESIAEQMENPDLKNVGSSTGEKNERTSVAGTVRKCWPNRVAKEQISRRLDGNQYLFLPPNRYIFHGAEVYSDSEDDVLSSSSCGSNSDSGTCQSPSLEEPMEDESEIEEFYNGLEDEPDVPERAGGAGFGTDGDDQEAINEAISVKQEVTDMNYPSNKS
# [4] = biological target: recombinant human DNMT1 enzyme (Homo sapiens, UniProt P26358); test: DNMT1 activity assay (radiometric); type: biochemical
# recombinant human DNMT1 enzyme, sequence (P26358 whole entry): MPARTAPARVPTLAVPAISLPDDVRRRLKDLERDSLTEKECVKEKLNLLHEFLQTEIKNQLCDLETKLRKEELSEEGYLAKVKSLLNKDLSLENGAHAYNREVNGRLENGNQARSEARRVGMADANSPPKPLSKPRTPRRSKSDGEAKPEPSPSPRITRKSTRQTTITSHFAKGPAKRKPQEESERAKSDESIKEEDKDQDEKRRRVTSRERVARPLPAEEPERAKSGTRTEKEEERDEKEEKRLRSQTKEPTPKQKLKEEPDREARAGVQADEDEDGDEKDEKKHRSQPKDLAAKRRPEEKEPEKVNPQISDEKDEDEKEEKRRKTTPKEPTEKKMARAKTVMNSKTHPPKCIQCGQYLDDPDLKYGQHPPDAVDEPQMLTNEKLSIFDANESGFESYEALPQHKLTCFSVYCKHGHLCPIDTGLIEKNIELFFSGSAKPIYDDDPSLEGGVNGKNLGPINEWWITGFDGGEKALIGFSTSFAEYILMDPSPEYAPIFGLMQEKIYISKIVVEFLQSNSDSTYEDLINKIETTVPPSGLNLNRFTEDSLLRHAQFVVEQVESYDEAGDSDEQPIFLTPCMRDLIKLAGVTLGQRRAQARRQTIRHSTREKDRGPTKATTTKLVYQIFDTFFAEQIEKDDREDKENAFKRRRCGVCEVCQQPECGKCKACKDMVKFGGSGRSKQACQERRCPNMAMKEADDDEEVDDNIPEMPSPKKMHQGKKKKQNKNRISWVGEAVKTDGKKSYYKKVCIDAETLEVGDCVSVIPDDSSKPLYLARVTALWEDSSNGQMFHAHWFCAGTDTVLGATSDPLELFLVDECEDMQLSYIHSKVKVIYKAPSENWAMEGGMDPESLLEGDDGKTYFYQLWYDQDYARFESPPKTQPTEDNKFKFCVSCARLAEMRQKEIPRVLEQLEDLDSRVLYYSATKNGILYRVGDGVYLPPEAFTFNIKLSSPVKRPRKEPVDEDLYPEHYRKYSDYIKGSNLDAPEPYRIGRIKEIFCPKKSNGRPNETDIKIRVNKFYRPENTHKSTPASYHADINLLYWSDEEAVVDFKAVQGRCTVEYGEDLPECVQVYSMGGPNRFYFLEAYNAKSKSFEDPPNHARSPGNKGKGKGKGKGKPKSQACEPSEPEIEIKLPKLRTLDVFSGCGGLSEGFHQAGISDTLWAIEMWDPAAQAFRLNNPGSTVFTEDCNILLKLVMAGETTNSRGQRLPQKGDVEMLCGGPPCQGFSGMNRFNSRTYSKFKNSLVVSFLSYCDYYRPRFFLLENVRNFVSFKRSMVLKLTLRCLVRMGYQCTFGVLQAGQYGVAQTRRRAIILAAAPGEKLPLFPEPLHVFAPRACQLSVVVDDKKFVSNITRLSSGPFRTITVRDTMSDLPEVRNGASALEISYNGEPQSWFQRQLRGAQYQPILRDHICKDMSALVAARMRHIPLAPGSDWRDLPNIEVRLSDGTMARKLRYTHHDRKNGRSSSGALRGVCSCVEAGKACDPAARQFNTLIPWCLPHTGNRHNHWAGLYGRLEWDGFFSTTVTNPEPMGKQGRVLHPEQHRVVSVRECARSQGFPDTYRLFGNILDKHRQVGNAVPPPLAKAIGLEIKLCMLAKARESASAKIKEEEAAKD
# [5] = biological target: recombinant human PRMT3 enzyme (Homo sapiens, UniProt O60678); test: PRMT3 activity assay (radiometric); type: biochemical; details: 10 nM to 200 μM (1,8-diMQ) or 600 μM (5-amino-1MQ)
# recombinant human PRMT3 enzyme, sequence (O60678 whole entry): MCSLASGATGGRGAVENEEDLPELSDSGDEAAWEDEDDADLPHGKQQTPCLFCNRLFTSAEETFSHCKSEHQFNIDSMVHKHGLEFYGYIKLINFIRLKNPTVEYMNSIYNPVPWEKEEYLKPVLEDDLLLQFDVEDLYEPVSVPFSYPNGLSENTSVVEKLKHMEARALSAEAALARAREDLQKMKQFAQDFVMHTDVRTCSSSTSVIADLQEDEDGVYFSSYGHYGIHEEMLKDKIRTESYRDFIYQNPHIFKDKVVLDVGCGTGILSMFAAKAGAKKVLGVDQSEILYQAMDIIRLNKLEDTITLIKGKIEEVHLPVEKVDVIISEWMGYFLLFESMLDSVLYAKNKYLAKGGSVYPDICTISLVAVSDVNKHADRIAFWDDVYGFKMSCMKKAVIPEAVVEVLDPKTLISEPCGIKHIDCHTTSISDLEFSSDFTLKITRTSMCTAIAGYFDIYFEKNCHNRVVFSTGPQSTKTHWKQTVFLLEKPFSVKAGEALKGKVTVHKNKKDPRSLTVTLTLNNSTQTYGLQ
# Excerpt: Test compounds were screened in biochemical assays for activity against three structurally similar methyltransferases, including catechol-O-methyltransferase (COMT), DNA (cytosine-5)-methyltransferase 1 (DNMT1), and protein arginine methyltransferase 3 (PRMT3). Additional biochemical assays were used to test the ability of compounds to inhibit nicotinamide phosphoribosyl transferase (NAMPT) and NAD+-dependent protein deacetylase sirtuin 1 (SIRT1), two enzymes in the NAD+ biosynthesis/salvage pathway. All assays were performed by Reaction Biology Corporation (RBC; Malvern, Pa., USA) and complete assay details are noted below. For each test compound, IC50 values were calculated from dose-response curves established with 10 concentrations of a half-log dilution series. For each assay, established enzyme specific inhibitors were included as positive controls for enzyme function and assay reproducibility. IC50 values were determined by non-linear least-squares fitting of a 4-parameter dose-response curve to collected data points (Graphpad Prism 7.0; La Jolla, Calif., USA).
# PRMT3 activity assay. […] The analogues, 1,8-diMQ and 5-amino-1MQ were tested at concentrations from 200 μM-10 nM and 600 μM-10 nM, respectively. Reactions were performed with 5 μM histone H3 (histone L-arginine) substrate, 1 μM radiolabeled S-adenosyl-L-[methyl-3H]methionine (SAM) co-substrate, and recombinant human PRMT3 enzyme. Activity was monitored via quantification of radiolabeled reaction product histone [methyl-3H]-L-arginine.
structure (smiles),measurement,setting,value
"C[n+]1cccc2c(N)cccc21 [1j, 5-amino-1-methylquinolin-1-ium iodide]",cell viability,"[1]; 3T3-L1 pre-adipocytes, 10 μM, 24 h",did not impact cell viability
same,cytotoxicity,"[1]; 3T3-L1 pre-adipocytes, 600 μM (highest concentration tested), 24 h",~40%
same,cytotoxicity relative to untreated cells,"[1]; 3T3-L1 pre-adipocytes, 100-300 μM, 24 h",modest cytotoxicity
same,3T3-L1 cell viability compared to untreated,[1]; highest tested concentration (0.1-60 μM range),only slightly reduced
same,"Papp at 4 h, 400 μM","[2]; 400 μM in PBS, 4 h, room temperature, read-out: Flux",3.01 ×10⁻⁶ cm/s
same,Permeability Classification (passive transport),"[2]; BCS classification, listed as 5-amino-1MQ",high passive and active transport; also recorded: High permeability
same,inhibition of SIRT1 (in words),[3]; 10 nM-300 μM,did not inhibit
same,SIRT1 activity (in words),[3]; 600 μM,minor reduction in SIRT1 activity
same,inhibition of DNMT1 (in words),"[4]; 10 nM to 200 μM (1,8-diMQ) or 600 μM (5-amino-1MQ)",did not inhibit
same,IC50,"[4]; NI: no inhibition, read-out: IC50, DNA (cytosine-5)-methyltransferase 1",> 200 µM
same,inhibition of PRMT3 (in words),[5],did not inhibit
